Active and inactive are the calls of the source. How the calls were made is not given here.
System: L. donovani-infected THP-1 macrophages, intracellular amastigote imaging
Assay: antileishmanial activity in infected THP-1 macrophages – imaging, THP-1 host macrophages, host toxicity (AID 1159564)
[1] = measured here: THP-1 host cell toxicity
[2] = measured here: amastigotes per macrophage

| SMILES | IC50 | IC50 [1] | IC50 [2] |
| --- | --- | --- | --- |
| O=C(Nc1nc(-c2ccccn2)cs1)c1ccc(S(=O)(=O)N2CCCCC2)cc1 | 1.3 µM | 13 µM | 1 µM |
| Cn1nc(C(=O)N2CCc3ccccc32)c2c1CCS(=O)(=O)C2 | 4 µM | > 50 µM | 1.6 µM |
| COc1ccc(-c2nc3ncccc3o2)cc1NC(=O)c1cccs1 | > 50 µM (inactive) | 20 µM | > 50 µM |
| CN(Cc1cc2ccccc2s1)c1ncc2c(N)nc(N)nc2n1 | 32 µM | 25 µM | 25 µM |
| O=C(NCCc1csc(-c2ccc(F)cc2)n1)c1cccs1 | > 50 µM (inactive) | > 50 µM | 20 µM |
| CNC(=O)Oc1ccc(C(=O)NCc2ccccc2)cc1OC(=O)NC | > 50 µM (inactive) | > 50 µM | > 50 µM |
| Cc1nccn1C1CCCN(C(=O)c2cc3c(F)cccc3s2)C1 (configuration not stated) | > 50 µM (inactive) | > 50 µM | > 50 µM |
| O=C(c1ccc(O)c(Cl)c1)N1CCN(c2cnccn2)CC1 | 5 µM | > 50 µM | 3.2 µM |
| Cc1nn(-c2nc(N)nc(-c3ccccn3)n2)c(C)c1Cc1ccccc1 | 3.2 µM | > 50 µM | 2.5 µM |
| Nc1nccc(-c2csc(Nc3ccc(Cl)cc3)n2)n1 | 1 µM | > 50 µM | 1 µM |
| O=c1cc(CSc2ccc(Cl)cc2)nc(-c2ccccn2)[nH]1 | 5 µM | 4 µM | 2 µM |
| CCn1nccc1CN(C)C(=O)C=Cc1ccc(Cl)cc1 | > 50 µM (inactive) | > 50 µM | > 50 µM |
| O=C(c1ccc(OCCCc2cnc[nH]2)cc1)C1CC1 | > 50 µM (inactive) | > 50 µM | 7.9 µM |
| Cn1nccc1-c1cc(OC(CN)c2ccccc2)cnc1-c1ccco1 (configuration not stated) | > 50 µM (inactive) | 16 µM | 32 µM |
| Cc1c([N+](=O)[O-])c(C(=O)Nc2sc3c(c2C#N)CCC(C)C3)nn1C (configuration not stated) | 32 µM | > 50 µM | 16 µM |
| COc1ccc2ncc(Cl)c(CCN3CC[C@H](NCc4cc5c(cn4)OCS5)[C@@H](O)C3)c2n1 | 1 µM | 6.3 µM | 0.5 µM |
| Cc1c(C(=O)NCCCCn2ccnc2)oc2c(C)cccc12 | > 50 µM (inactive) | > 50 µM | > 50 µM |
| Cc1cc(Nc2cc(C3CC3)[nH]n2)nc(N2CCCC2)n1 | 0.16 µM | 0.13 µM | 0.05 µM |
| O=S(=O)(c1cccc(CSc2nnc(-c3ccc4c(c3)OCO4)o2)c1)N1CCOCC1 | 0.79 µM | > 50 µM | 0.25 µM |
| Cn1cc(CN2CCN(c3ccc4c(c3)CCN(C(=O)[C@H]3C[C@@H]3c3ccccc3)CC4)CC2)cn1 | 32 µM | 6.3 µM | 1 µM |
| Cc1cc2nc(N3CC[C@H]3C(N)=O)nc(Nc3cc(C4CC4)[nH]n3)c2s1 | 2 µM | 0.79 µM | 1.3 µM |
| COCCn1c(-c2ccccc2)cnc1NCc1ccccc1OC | 6.3 µM | 50 µM | 6.3 µM |
| Cc1nc(N2CCC(C(=O)N3CCC(O)(c4cccnc4)CC3)CC2)nc2ccc(C(C)C)cc12 | 50 µM | 25 µM | 10 µM |

| SMILES | IC50 | IC50 [1] | IC50 [2] |
| --- | --- | --- | --- |
| Cc1[nH]nc(-c2nc3ccccc3[nH]2)c1C(=O)NC1CCCNC1 (configuration not stated) | 6.3 µM | 1.6 µM | 6.3 µM |
| Cc1cc(C)nc(N2CCC(N(Cc3cccnc3)C(=O)c3cccc(C#N)c3)CC2)n1 | > 50 µM (inactive) | > 50 µM | > 50 µM |
| CCc1c(C)nc(-n2nc(C)cc2NC(=O)COc2ccccc2F)[nH]c1=O | 7.9 µM | 4 µM | 5 µM |
| CC(C)Nc1nc(Cl)nc2ccccc12 | 2.5 µM | 20 µM | 1.3 µM |
| Cn1nc([N+](=O)[O-])nc1Oc1ccc(C(=O)c2ccccc2)cc1 | > 50 µM (inactive) | > 50 µM | > 50 µM |
| O=C(Nc1nc2ccccc2[nH]1)c1c(O)c2cccc3c2n(c1=O)CC3 | 2 µM | > 50 µM | 1 µM |
| CC(C)CC(=O)Nc1cc(C2CC2)nn1-c1nc2c(c(=O)[nH]1)CCCC2 | 7.9 µM | 5 µM | 5 µM |
| CN(C)S(=O)(=O)c1ccc(-c2cnc(N)c(-c3nc4ccc(F)cc4[nH]3)c2)cc1 | 1.6 µM | 4 µM | 0.63 µM |
| COc1ccc(-c2cc(C)no2)cc1S(=O)(=O)Nc1ccc(C)c(C)c1 | 2.5 µM | > 50 µM | 2 µM |
| CNc1nc(C)nc(N2CCc3cc(C(=O)NCc4ccc(-c5ccn[nH]5)cc4Cl)ccc32)n1 | 0.32 µM | > 50 µM | 0.4 µM |
| CC(C)(C)Nc1nc(Nc2ccc3c(c2)CS(=O)(=O)C3)nc2[nH]ccc12 | 6.3 µM | 20 µM | 5 µM |
| OCCCNc1nc(Nc2ccncc2)nc2ccccc12 | > 50 µM (inactive) | > 50 µM | > 50 µM |
| COc1ccnc2[nH]cc(-c3cc(C(=O)N[C@H](CO)c4ccccc4)co3)c12 | 7.9 µM | 0.79 µM | 2 µM |
| COc1ccc(-c2nc3ccncc3c(=O)n2CCOc2ccccc2)cc1 | > 50 µM (inactive) | > 50 µM | > 50 µM |
| Cc1ccc2sc(NC(=O)Cn3cnc([N+](=O)[O-])n3)nc2c1 | > 50 µM (inactive) | > 50 µM | > 50 µM |
| O=C(NCC1CCCCN1C(=O)c1cccc2ccccc12)c1ccccc1 (configuration not stated) | > 50 µM (inactive) | > 50 µM | > 50 µM |
| Cc1[nH]n2c(=O)c3c(nc2c1-c1ccc(Br)cc1)CCCC3 | > 50 µM (inactive) | > 50 µM | 40 µM |
| CC(C(=O)Nc1ccc(Br)cc1)N1CCN(c2ccc([N+](=O)[O-])cc2)CC1 (configuration not stated) | > 50 µM (inactive) | > 50 µM | > 50 µM |
| O=c1[nH]c(NCCCNCc2cc(Br)cc(Br)c2)nc2ccsc12 | 5 µM | 16 µM | 2.5 µM |
| c1ccc(Nc2nc(-c3ccccn3)cc(N3CCOCC3)n2)cc1 | 2 µM | > 50 µM | 1.3 µM |
| CCCN(Cc1ccc(OC)c(OC)c1)Cc1cc(=O)c2c(C)cc(C)cc2[nH]1 | 25 µM | 5 µM | 20 µM |
| O=C1NCc2cccc(Nc3nc(NC4CCC(O)CC4)ncc3Br)c21 (configuration not stated) | 0.16 µM | 0.1 µM | 0.13 µM |
| Cc1ccc(C)c(OC2CCN(C(=O)C(C)n3ccnc3)CC2)c1 (configuration not stated) | > 50 µM (inactive) | > 50 µM | 0.32 µM |

| SMILES | IC50 | IC50 [1] | IC50 [2] |
| --- | --- | --- | --- |
| O=C(CSc1nnc(-c2ccc3c(c2)OCO3)o1)N(Cc1ccco1)CC(F)(F)F | 7.9 µM | > 50 µM | 3.2 µM |
| Oc1c(-c2n[nH]c(CCc3ccccc3)n2)ncc2cccnc12 | 4 µM | 20 µM | 3.2 µM |
| NC(=O)c1ccsc1NC(=O)c1ccc([N+](=O)[O-])s1 | 1.6 µM | 13 µM | 1.3 µM |
| CC(Cn1ccnc1)NC(=O)COc1ccc(Cl)c(Cl)c1 (configuration not stated) | > 50 µM (inactive) | > 50 µM | > 50 µM |
| CN(Cc1cccnc1)Cc1ccc(N2CCN(C(=O)C3(c4ccc(Cl)cc4)CC3)CC2)nc1 | > 50 µM (inactive) | 10 µM | > 50 µM |
| CN(Cc1nc2ccccc2s1)C(=O)C=Cc1cc2ccccc2o1 | > 50 µM (inactive) | > 50 µM | 16 µM |
| Cc1ccc(NC(=O)c2ccc(Cl)c(NC(=O)c3ccc([N+](=O)[O-])cc3)c2)cc1 | > 50 µM (inactive) | > 50 µM | > 50 µM |
| CCOC(=O)c1cn[nH]c1S(=O)(=O)N1CCC1c1ccccc1 (configuration not stated) | > 50 µM (inactive) | > 50 µM | > 50 µM |
| N#Cc1cc([N+](=O)[O-])ccc1NC1CCCCCC1 | > 50 µM (inactive) | > 50 µM | > 50 µM |
| Cc1cc(C)n(-c2nc(NC(C)(C)C)nc(N3CCOCC3)n2)n1 | 7.9 µM | > 50 µM | 4 µM |
| Cc1nn(-c2nc3ccccc3[nH]2)c2c1C(c1ccc(O)cc1)CC(=O)N2 (configuration not stated) | 1 µM | 6.3 µM | 0.5 µM |
| CCOc1ccc2nc(NC(=O)c3ccc([N+](=O)[O-])s3)sc2c1 | 6.3 µM | > 50 µM | 5 µM |
| COc1ccc(NS(=O)(=O)c2cc(NC(=O)c3ccc([N+](=O)[O-])s3)ccc2OC)cc1 | 0.79 µM | 13 µM | 0.79 µM |
| O=C(Nc1ccc(Br)c(Cl)c1)Nc1ccc2c(c1)OCO2 | > 50 µM (inactive) | > 50 µM | > 50 µM |
| O=C(Nc1ccc(C(F)(F)F)cc1)Nc1cccc([N+](=O)[O-])c1 | 2.5 µM | 6.3 µM | 2 µM |
| COc1ccc(S(=O)(=O)Nc2ccccc2OC)cc1NC(=O)CCCc1c[nH]c2ccccc12 | > 50 µM (inactive) | > 50 µM | > 50 µM |
| Cc1ccc(Nc2nc(C3CCCN3Cc3ccn[nH]3)cs2)nc1 (configuration not stated) | 1.6 µM | 25 µM | 1.3 µM |
| N#CN1CC[C@@H](NC(=O)Nc2ccccc2Oc2ccccc2)C1 | 5 µM | 25 µM | 4 µM |
| O=C1OCc2ccc(Nc3nccc(-c4cnn5ncccc45)n3)cc21 | 0.016 µM | 0.0079 µM | 0.013 µM |
| CCOc1cnn(C)c(=O)c1Nc1ccc(C(=O)NCc2ccc(F)cc2)cc1 | > 50 µM (inactive) | 32 µM | > 50 µM |
| O=C(NCCc1csc(-c2ccc(F)cc2)n1)c1ccco1 | > 50 µM (inactive) | > 50 µM | > 50 µM |
| COc1cnc2ccc(=O)n(CCN3CCC(NC(=O)Cc4ccc(Cl)c(Cl)c4)CC3)c2c1 | 40 µM | 25 µM | 5 µM |
| Cc1cccc(NS(=O)(=O)c2ccc3c(c2)C(=O)c2cc(S(=O)(=O)Nc4cccc(C)c4C)ccc2-3)c1C | > 50 µM (inactive) | > 50 µM | > 50 µM |

From PubChem BioAssay AID1159564 (GlaxoSmithKline (GSK), 2015)
